# From paper PMC10725991, “Kaempferol is a novel antiviral agent against channel catfish virus infection through blocking viral attachment and penetration in vitro” (Frontiers in Veterinary Science, 2023)
# What was measured:
# [1] = system: CCV in CCO cells; assay: Liquid plaque assay; format: cell-based, Channel catfish virus (CCV; settings: Ictalurid herpesvirus 1; kaempferol 10 μg/mL, 36 h; read-out: inhibition of viral plaque formation
# Protocol: For analyzing the CPE reduction of viral infected CCO cells by kaempferol, the CCO cells were seeded in 24-well plates and cultured overnight at 28°C before infection. Then, the monolayer cells were infected with CCV at 10^3 TCID50/ml for 1 h. Subsequently, the infected cells were treated with kaempferol at different concentrations (2.5, 5, 7.5, 10, 12.5, and 15 μg/mL), respectively. The CCO cells without CCV and drug treatment were set as mock control whereas the virus-infected cells without compound treatment were set as CCV control. Each sample was directly observed and photographed under an inverted microscope at 24 and 36 h post-infection. Meanwhile, the plaque assay was performed as described in previous studies with slight modifications ([34]). Briefly, confluent cells in 24-well plates were infected with CCV (10^3 TCID50/ml) for 1 h. Subsequently, the inoculums were removed and the kaempferol with different concentrations (2.5, 5, 7.5, 10, 12.5, and 15 μg/mL) was added and remained throughout the experiment. The cells were fixed and stained with 1% crystal violet and then photographed at 36 h post-infection.
# Figure 4 CPE and plaque reduction in CCO cells treated with kaempferol. (A) The cells were incubated with different concentrations of kaempferol (2.5, 5.0, 7.5, 10, 12.5 and 15.0 μg/mL) after CCV infection 1 h. […]
# [2] = system: CCV in CCO cells; assay: Time-of-drug-addition assay, RT-qPCR; format: cell-based, Channel catfish virus (CCV, Ictalurid herpesvirus 1)
# Protocol: The CCO cells seeded in 24-well plates were infected with CCV under five different treatment conditions: (i) Control: CCO cells cultured in the maintenance DMEM media were infected by CCV for 1 h. (ii) Pre-treatment: CCO cells were pre-treated with 15 μg/mL of kaempferol for 2 h before CCV infection. (iii) Virus treatment: CCV was pre-incubated with kaempferol at 37°C for 2 h before being added to CCO cells. (iv) Virus and kaempferol co-treatment: CCO cells were treated in media containing both kaempferol and CCV at 28°C for 1 h. (v) Post-treatment: CCO cells were incubated with CCV at 28°C for 1 h. After that, kaempferol (15 μg/mL) was supplemented at 1, 2, 4, 8, 12, and 24 h post-infection. In all treatment conditions, the unabsorbed CCV was washed off twice by PBS after 1 h of adsortion. The samples were collected to test the CCV gene expression by the RT-qPCR at 24 h and 36 h after the corresponding treatments.
# For RT-qPCR, the total RNA was isolated from CCV-infected cells using RnaExTM (Trizol)^a reagent (GENERAY, China), and reversed transcribed applying a HiScript III RT SuperMix with gDNA wiper (Vazyme, China) following the manufacturer’s instructions. Quantitative PCR was performed with a LightCycler 96 Real-Time PCR Detection System (Roche, USA) using ChamQ Universal SYBR qPCR Master Mix (Vazyme, China) with the following cycle conditions: 95°C for 30 s, followed by 40 cycles of 95°C for 10 s and 60°C for 30 s. To assess the specificity of each amplicon, melt curve analysis was also performed at the end of each thermal profile. The primers used for PCR are listed in Supplementary Table S2. Each individual sample was run in triplicate wells. Fold changes of the selected gene vs 18 s (internal reference) were calculated by the 2^−△△Ct method.
# Figure 5 Time of drug-addition assay of kaempferol in CCV inhibition. (A) The schematic diagram of the experimental settings. The CCO cells were infected with CCV for 1 h followed by the indicated kaempferol treatments. Cell lysates at indicated time post-infection were subjected to RT-qPCR. (B,C) The relative expression levels of the CCV ORF 39 and ORF 59 genes with cell-treatment, virus-treatment and co-treatment at 24 h and 36 h post-infection. (D) The relative expression levels of the CCV ORF 39 and ORF 59 genes with post-treatment at 36 h post-infection. The selected gene level was normalized to 18 s (internal reference) using the 2^− ΔΔCT method. Data represent mean ± SD. The p value was determined by *p < 0.05, **p < 0.01.
smiles,measurement,setting,value
O=c1c(O)c(-c2ccc(O)cc2)oc2cc(O)cc(O)c12 [Kaempferol],inhibition at 10 µg/mL,[1],~100%
same,"intracellular CCV mRNA level, pre-treatment of cells","[2]; 15 μg/mL for 2 h before CCV infection, 24 h post CCV infection",effectively decreased
same,"intracellular CCV mRNA level, post-treatment","[2]; 15 μg/mL kaempferol supplemented 1-24 h post-infection, read at 36 h",significantly reduced
same,"viral ORF 39 and ORF 59 mRNA levels, co-treatment",[2]; 15 μg/mL kaempferol with CCV at 28°C for 1 h,failed to decrease
same,"decrease of viral mRNA level, kaempferol supplemented at 24 h post-infection","[2]; 15 μg/mL, post-treatment, read at 36 h post-infection",approximately 40%
same,"intracellular CCV mRNA level, virus-treatment",[2]; CCV pre-incubated with kaempferol 2 h before addition to cells,significantly reduced
